# Results reported in patent publication US5491242A, “Protein kinase C inhibitors” (Eli Lilly and Company, priority 1995, dated 1996).
# Where two headings read alike, the source gives them in different places.
# Tests used:
# Type in all cases: biochemical
# [1] = biological target: PKC alpha (Homo sapiens, UniProt P17252); test: PKC Enzyme Assay, alpha
# Method: (§1) PKC enzymes=alpha, beta I, beta II, gamma, delta, epsilon, eta and zeta
# (§2) Assay components in a total volume of 250 μL are the following:
# (§3) Vesicles consisting of 120 μg/mL phosphatidylserine (Avanti Polar Lipids) and sufficient diacylglycerol (Avanti Polar Lipids) to activate the enzyme to maximum activity in 20 mM HEPES buffer (Sigma, St. Louis, Mo.), pH 7.5, 940 μM calcium chloride (Sigma, St. Louis, Mo.) for assaying the alpha, beta I, beta II and gamma enzyme only, 1 mM EGTA for all the enzymes, 10 mM magnesium chloride (Sigma, St. Louis, Mo.) and 30 μM (gamma-32P) ATP (DuPont). For all the enzymes either histone type HL (Worthington) or myelin basic protein is used as substrate. The assay is started by addition of protein kinase C enzyme incubated at 30° C. for 10 minutes and stopped by adding 0.5 mL of cold trichloroacetic acid (Amresco) followed by 100 μL of 1 mg/mL bovine serum albumin (Sigma, St. Louis, Mo.). The precipitate is collected by vacuum filtration on glass fiber filters employing a TOMTEC™ filtration system and quantified by counting in a beta scintillation counter.
# [2] = biological target: PKC beta I (Homo sapiens, UniProt P05771); test: PKC Enzyme Assay, beta I; conditions: Table 1; read-out: IC50 β1
# Method: as §1, §2, §3
# [3] = biological target: PKC beta II (Homo sapiens, UniProt P05771); test: PKC Enzyme Assay, beta II
# Method: as §1, §2, §3
# [4] = biological target: PKC gamma (Homo sapiens, UniProt P05129); test: PKC Enzyme Assay, gamma; conditions: Table 1
# [5] = biological target: PKC delta (Homo sapiens, UniProt Q05655); test: PKC Enzyme Assay, delta; conditions: Table 1
# [6] = biological target: T1, PKC zeta (Homo sapiens, UniProt Q05513); test: PKC Enzyme Assay, zeta; conditions: Table 1
# T1 sequence (Q05513 1-592): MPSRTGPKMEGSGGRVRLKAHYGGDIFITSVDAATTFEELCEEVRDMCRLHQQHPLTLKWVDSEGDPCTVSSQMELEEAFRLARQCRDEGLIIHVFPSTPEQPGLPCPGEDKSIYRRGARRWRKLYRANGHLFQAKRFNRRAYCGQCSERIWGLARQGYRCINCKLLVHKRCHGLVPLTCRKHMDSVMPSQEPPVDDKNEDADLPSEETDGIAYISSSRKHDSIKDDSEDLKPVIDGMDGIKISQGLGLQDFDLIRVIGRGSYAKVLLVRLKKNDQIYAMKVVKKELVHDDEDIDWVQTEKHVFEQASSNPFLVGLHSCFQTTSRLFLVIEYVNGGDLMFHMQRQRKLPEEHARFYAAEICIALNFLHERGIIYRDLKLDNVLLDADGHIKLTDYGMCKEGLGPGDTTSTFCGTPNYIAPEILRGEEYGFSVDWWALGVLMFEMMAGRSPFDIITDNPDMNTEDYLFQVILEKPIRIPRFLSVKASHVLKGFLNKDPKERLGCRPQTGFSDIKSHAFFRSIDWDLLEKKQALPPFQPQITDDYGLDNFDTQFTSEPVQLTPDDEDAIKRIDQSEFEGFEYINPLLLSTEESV
# Method: as §1, §2, §3
# Chain of PKC beta I (P05771 whole entry): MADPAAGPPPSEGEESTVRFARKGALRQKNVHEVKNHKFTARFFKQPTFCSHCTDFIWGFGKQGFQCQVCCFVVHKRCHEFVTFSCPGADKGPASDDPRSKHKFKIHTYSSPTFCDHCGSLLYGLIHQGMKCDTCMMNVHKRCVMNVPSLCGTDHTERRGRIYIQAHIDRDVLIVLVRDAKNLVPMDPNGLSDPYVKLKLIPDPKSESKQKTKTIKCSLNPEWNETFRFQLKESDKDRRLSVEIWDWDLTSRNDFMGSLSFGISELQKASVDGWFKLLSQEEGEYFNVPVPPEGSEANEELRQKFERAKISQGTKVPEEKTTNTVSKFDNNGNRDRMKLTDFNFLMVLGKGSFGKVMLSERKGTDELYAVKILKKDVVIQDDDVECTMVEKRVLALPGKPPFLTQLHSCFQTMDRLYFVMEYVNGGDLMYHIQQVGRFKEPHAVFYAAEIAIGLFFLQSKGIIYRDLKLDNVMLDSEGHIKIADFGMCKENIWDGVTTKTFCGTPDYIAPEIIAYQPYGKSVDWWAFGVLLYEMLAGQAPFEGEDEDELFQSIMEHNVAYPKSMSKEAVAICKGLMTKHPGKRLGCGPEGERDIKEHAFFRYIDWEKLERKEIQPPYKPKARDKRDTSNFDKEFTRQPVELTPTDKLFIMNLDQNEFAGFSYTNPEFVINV
# Chain of PKC delta (Q05655 whole entry): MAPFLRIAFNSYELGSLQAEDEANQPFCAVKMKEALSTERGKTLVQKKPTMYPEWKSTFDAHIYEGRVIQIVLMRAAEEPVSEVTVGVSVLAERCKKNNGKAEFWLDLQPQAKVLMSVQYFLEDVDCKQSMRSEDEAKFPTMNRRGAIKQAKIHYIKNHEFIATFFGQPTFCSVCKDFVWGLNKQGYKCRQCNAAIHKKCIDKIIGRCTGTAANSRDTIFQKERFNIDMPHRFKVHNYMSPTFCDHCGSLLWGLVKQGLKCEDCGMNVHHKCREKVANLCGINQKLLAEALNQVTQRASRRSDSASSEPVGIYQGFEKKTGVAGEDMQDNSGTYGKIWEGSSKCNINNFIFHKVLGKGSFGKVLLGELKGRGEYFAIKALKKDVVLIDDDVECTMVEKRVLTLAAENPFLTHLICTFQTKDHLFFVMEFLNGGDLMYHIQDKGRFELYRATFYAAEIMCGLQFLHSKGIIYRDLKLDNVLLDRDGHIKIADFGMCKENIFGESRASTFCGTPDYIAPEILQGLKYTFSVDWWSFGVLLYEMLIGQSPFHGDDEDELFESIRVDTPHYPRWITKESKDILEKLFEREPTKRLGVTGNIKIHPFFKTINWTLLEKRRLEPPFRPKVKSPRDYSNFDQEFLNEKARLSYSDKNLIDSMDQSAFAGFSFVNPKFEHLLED
# Chain of PKC beta II (P05771 1-673 isoform P05771-2): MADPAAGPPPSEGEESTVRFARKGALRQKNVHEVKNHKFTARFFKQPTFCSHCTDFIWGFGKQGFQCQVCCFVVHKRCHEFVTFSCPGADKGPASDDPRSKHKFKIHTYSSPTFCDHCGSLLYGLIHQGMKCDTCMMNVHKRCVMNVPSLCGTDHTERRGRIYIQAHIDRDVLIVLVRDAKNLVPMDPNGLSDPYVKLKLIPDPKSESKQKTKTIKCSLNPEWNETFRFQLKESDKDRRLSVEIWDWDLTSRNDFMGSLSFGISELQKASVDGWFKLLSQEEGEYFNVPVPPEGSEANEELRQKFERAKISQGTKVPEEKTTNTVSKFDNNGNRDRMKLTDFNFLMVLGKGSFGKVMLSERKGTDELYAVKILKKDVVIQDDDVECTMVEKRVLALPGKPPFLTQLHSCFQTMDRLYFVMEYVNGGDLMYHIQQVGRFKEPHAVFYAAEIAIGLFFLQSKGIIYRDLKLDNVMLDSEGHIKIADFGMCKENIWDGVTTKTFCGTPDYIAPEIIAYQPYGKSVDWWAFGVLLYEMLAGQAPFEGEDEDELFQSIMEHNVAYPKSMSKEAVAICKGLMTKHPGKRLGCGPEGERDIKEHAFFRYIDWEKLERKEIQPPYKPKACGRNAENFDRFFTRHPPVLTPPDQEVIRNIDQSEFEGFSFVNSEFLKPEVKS
"IC50 ([1]; Table 1, read-out: IC50 α)",IC50 [2],"IC50 ([3]; Table 1, read-out: IC50 β2)",IC50 [4],IC50 [5],IC50 [6],IC50 ([1]; read-out: IC50 with respect to the alpha protein kinase C isozyme),IC50 ([3]; read-out: 50% inhibition at a concentration for the beta-2 isozyme),SMILES
83 µM,8 µM,2600 nM,> 100 µM,> 100 µM,> 100 µM,–,–,"CC(C)(C)OC(=O)N[C@@H](Cc1ccccc1)C(=O)n1cc(C2=C(c3cn(C(=O)[C@H](Cc4ccccc4)NC(=O)OC(C)(C)C)c4ccccc34)C(=O)NC2=O)c2ccccc21 [Example 3, 3,4-Bis[(1-N-^t BOC)-phenylalanine-3-indolyl]-1H-pyrrol-2,5-dione]"
–,0.26 µM,–,19 µM,4.6 µM,100 µM,1.4 µM,31 nM,"CC(C)(C)OC(=O)NCC(=O)n1cc(C2=C(c3cn(CCCN=[N+]=[N-])c4ccccc34)C(=O)NC2=O)c2ccccc21 [Example 1, 3-[1-(3-azidopropyl)-3-indolyl]-4-[(1-N-^t BOC)-glycine-3-indolyl]-1H-pyrrol-2,5-dione]"
